Values after ≈ are worked out from the molar mass of the structure shown.
What was measured:
[1] = test system: Thp1 human monocytic cells; experiment: Thp1 Monocyte ATP Production Assay; type: cell-based; settings: for IC50: Homo sapiens, THP-1, 24 h, Thp1 cells, 24 hour incubation, ATPLite, 9-point range 10 μM to 10 nM, mean of 2 independent experiments; for potency in the Thp1 monocytic ATP assay (in words): compared to the reference compounds
Experimental: In vitro potency of test compounds was determined by incubation with Thp1 human monocytic cells and subsequent determination of Adenosine TriPhosphate (ATP) levels using firefly luciferase.
ATP is present in all metabolically active cells. When cells lose integrity, their ability to synthesise ATP is rapidly lost. […] See, e.g., Kang et al., 2015; Jiang et al., 2013. Levels of ATP can be monitored using a system based on firefly (Photinus pyralis) luciferase (see, e.g., Auld et al., 2009) using commercially available kits. A system known as
ATPlite™ was using to measure effects of the test compounds on cellular viability in vitro. This one-step assay system is an adenosine triphosphate (ATP) monitoring system based on the production of light caused by the reaction of ATP from the cells with added luciferase and D-luciferin, as illustrated in the reaction scheme below:
The emitted light is proportional to the ATP concentration.
Thp1 cells were plated at 112500 cells per well in 125 μL RPMI-1640 (no glucose) with 1% FBS in 96-well plates. Test compounds were prepared as 100 mM solutions in DMSO. These stock solutions were diluted in DMSO and then diluted 1000× in culture medium (RPMI) before being added directly to the wells so as to give the desired final compound concentration. After a 24 hour incubation at 37° C./5% CO2, ATPLite™ (Perkin Elmer) was added to each well (1:10 v/v, 10 μL). The plate was then incubated at room temperature for 5 minutes and the emitted light was quantified on Viewlux with a measurement time of 0.3 seconds and binning 4×4.
The average results for each test compound were expressed as a percent (%) of the average control value reflecting cell viability. The average values across the concentrations tested were then plotted and the IC50 for was calculated by fitting the data to a 4-parameter IC50 equation using software from Graf it (Erithacus Software). Each experiment was repeated twice and the data are presented as the mean IC50 from both experiments.

Rat hepatocyte stability = type: in vitro ADME; settings: rat, pooled rat hepatocytes, 60 minute incubation; for hepatocyte CLint at 1 μM: read-out: Rat Clint (μL/min/million cells); for half-life at 1 μM: read-out: Rat t1/2
Experimental: (§1) Metabolic stability of test compounds was measured by determination of the rate of disappearance of the compound when incubated in the presence of rat or human hepatocytes, a primary source of the most important enzymes (cytochrome P450s) involved in drug metabolism. Study of drug stability in the presence of primary hepatocytes is accepted as a valuable model permitting rapid prediction of in vivo drug stability.
(§2) Rat or human hepatocytes were obtained from a commercial source and viability was assessed using a trypan blue solution prior to use. Test compounds (final concentration 1 μM, 0.1% DMSO, 0.9% acetonitrile) or a marker (diclofenac or diltiazem, final assay concentration 1 μM, 0.1% DMSO, 0.9% acetonitrile) were incubated with pooled hepatocytes for a 60 minute period and samples removed at up to 6 time points and analysed by LC-MS/MS for the presence/amount of test compounds.
(§3) Each compound was incubated for 0, 5, 15, 30, 45, or 60 minutes. The reactions were stopped by the addition of methanol containing an internal standard (1 μM Tolbutamide) at the appropriate time points, mixed and placed at −20° C. for ≥1 hour to quench and allow protein to precipitate. All samples were centrifuged (2500×g, 20 minutes, 4° C.). The aliquots were analysed using LC-MS/MS. Reactions were performed in duplicate at 37° C.
(§4) Data were processed, and the results plotted as In(concentration) vs. time. The elimination rate constant (slope of the regression line, k) was calculated using the following formula, where C(t) is the concentration at time t and C(0) is the starting concentration:
(§5) The half-life (t1/2) was calculated using the following formula: […]
(§6) The intrinsic clearance (CIint) was calculated using the following formula, where [cell] is the hepatocyte concentration in the assay: […]

[2] = Human hepatocyte stability; type: in vitro ADME; settings: human, pooled human hepatocytes, human hepatocytes, 1 μM, 60 minute incubation; for hepatocyte CLint at 1 μM: read-out: Human Clint (uL/min/million cells); for half-life at 1 μM: read-out: Human t1/2
Experimental: as §1, §2, §3, §4, §5, §6

[3] = Aqueous solubility in FaSSIF; type: physicochemical; settings: kinetic from dmso stock, pH 6.5, three replicates
Experimental: Aqueous solubility was measured by equilibration of compounds with fasted state simulated intestinal fluid (FaSSIF) and quantified spectrophotometrically.
Preparation of blank FaSSIF: 0.21 g of sodium hydroxide (NaOH) pellets, 1.97 g of dihydrogen sodium phosphate (NaH2PO4.2H2O) and 3.09 g of sodium chloride (NaCl) were dissolved in 400 mL of deionised water. The pH was adjusted to 6.5 using 1 M hydrochloric acid and further deionised water added to a final volume of 500 mL.
Preparation of FaSSIF: 0.056 g of SIF Powder (containing sodium taurocholate and lecithin) (Phares AG) was dissolved in 25 mL of blank FaSSIF and stirred until the powder was completely dissolved. The solution was allowed to stand for 2 hours during which it became opalescent; it was used within 24 hours. The final solution composition was characterised as follows: • Sodium taurocholate: 3 mM • Lecithin: 0.75 mM • Osmolarity: 270±10 mOsmol • pH: 6.5
The optical density was measured at the end of the incubation period for test compounds and a reference used to determine solubility. In brief, two samples were prepared for each determination: a reference sample consisting of a stock solution of test compound in DMSO diluted in system solution (a phosphate free, low absorption buffer) and propanol; and a test sample (prepared in triplicate) consisting of 0.5 mL FaSSIF spiked with test compound at 0.2 mM. Each sample was incubated at room temperature for 16 hours with constant shaking at 250 rpm. At the end of the incubation period, 0.3 mL of each sample was filtered through a pION filter plate (PION, Woburn MA), diluted 1:1 with propanol and scanned using UV spectrophotometry at λmax ([…]) using a Spectra Max Plus—Version 2.1000 (Molecular Devices, Sunnyvale, CA), with pSOL Explorer solubility determination software (pION, Woburn, MA).
FaSSIF solubility was calculated using the following formula:
[formula] • wherein: • “OD” is the optical density; • “Cr” is the concentration of the reference (33.4 μM); and • “molecular weight” is for the test compound (e.g., 381.44 for ABD735).

CYP2C9 = CYP2C9 (Homo sapiens (Human), UniProt P11712); experiment: Human Cytochrome P450 Inhibition Assay (Bactosomes); type: in vitro ADME; settings: recombinant Bactosomes, 10 minutes, 37° C.
CYP2C19 = CYP2C19 (Homo sapiens (Human), UniProt P33261); experiment: as above; type: in vitro ADME; settings: recombinant Bactosomes, 10 minutes, 37° C.
CYP2D6 = CYP2D6 (Homo sapiens (Human), UniProt P10635); experiment: as above; type: in vitro ADME; settings: recombinant Bactosomes, 10 minutes, 37° C.
CYP1A2 = CYP1A2 (Homo sapiens (Human), UniProt P05177); experiment: as above
human hepatocytes = experiment: Human hepatocyte stability; type: in vitro ADME; settings: hepatocyte stability, compared to the reference compounds
Experimental: as §1, §2, §3, §4, §5, §6

CYP3A4 = CYP3A4 (Homo sapiens (Human), UniProt P08684); experiment: Human Cytochrome P450 Inhibition Assay (Bactosomes); type: in vitro ADME; settings: recombinant Bactosomes, 10 minutes, 37° C.
Sequence of CYP3A4 (P08684 whole entry): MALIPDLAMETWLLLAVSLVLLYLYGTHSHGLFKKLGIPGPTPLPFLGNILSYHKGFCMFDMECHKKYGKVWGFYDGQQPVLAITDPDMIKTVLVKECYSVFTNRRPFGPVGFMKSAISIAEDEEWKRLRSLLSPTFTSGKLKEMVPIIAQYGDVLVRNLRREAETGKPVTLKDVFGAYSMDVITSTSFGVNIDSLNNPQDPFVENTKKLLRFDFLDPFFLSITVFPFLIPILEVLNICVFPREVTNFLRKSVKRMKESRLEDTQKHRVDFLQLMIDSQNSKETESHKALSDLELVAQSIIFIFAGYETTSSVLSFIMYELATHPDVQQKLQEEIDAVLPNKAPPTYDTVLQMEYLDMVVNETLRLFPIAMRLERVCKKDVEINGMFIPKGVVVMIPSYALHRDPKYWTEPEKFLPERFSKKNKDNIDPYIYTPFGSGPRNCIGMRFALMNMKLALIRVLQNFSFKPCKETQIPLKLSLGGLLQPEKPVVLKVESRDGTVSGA

Sequence of CYP1A2 (P05177 whole entry): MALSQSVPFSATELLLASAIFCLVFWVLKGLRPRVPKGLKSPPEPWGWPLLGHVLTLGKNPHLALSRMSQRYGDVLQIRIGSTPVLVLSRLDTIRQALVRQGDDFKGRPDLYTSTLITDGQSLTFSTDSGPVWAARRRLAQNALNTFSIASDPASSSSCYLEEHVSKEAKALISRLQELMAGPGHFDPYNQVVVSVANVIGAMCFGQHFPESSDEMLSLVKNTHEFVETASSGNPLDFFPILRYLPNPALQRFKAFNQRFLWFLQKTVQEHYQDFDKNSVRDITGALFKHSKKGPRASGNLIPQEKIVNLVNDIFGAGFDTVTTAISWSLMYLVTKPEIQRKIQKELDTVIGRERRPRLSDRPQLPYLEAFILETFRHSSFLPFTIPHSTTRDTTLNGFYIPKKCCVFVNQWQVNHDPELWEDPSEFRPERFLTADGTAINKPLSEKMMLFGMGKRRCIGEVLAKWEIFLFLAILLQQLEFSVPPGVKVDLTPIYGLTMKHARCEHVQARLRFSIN
Sequence of CYP2D6 (P10635 whole entry): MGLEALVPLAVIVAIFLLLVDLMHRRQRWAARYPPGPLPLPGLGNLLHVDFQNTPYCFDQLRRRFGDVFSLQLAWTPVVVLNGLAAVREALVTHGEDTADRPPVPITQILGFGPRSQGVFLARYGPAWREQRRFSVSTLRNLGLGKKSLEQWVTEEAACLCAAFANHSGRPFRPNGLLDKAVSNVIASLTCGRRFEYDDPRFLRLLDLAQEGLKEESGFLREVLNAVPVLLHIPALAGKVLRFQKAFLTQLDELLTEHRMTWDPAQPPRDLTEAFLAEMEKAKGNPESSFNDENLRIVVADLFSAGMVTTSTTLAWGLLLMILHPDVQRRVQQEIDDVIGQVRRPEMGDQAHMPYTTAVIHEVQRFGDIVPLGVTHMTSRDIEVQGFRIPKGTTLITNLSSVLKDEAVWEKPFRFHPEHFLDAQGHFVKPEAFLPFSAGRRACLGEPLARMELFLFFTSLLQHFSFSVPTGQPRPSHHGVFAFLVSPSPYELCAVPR
Sequence of CYP2C9 (P11712 whole entry): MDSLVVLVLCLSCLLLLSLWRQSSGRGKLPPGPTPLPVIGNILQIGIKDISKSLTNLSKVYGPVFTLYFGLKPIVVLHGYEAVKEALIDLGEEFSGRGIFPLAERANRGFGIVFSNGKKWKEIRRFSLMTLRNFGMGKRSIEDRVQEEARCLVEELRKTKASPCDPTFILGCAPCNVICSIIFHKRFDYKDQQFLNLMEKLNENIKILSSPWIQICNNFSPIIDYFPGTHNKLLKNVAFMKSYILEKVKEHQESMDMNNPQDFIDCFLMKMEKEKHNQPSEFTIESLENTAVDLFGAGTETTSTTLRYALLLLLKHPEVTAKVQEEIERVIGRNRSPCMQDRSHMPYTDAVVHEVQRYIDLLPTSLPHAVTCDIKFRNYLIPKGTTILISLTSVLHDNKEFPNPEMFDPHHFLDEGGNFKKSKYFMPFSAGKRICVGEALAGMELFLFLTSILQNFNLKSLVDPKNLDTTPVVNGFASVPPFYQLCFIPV
Sequence of CYP2C19 (P33261 whole entry): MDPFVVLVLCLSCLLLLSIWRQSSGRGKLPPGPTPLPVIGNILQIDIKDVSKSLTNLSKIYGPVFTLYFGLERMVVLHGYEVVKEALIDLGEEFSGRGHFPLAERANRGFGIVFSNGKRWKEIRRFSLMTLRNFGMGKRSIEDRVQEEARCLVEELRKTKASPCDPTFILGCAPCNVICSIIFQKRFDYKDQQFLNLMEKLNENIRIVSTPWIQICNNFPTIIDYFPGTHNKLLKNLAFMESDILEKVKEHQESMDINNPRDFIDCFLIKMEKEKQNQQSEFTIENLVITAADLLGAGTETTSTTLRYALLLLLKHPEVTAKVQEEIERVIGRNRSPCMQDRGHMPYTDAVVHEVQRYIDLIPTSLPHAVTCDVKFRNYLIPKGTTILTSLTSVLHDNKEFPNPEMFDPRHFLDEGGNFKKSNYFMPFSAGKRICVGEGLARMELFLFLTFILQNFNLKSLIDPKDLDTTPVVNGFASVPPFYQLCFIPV

SMILES: C[C@]1(O)CC[C@@H](CS(=O)(=O)c2ccc(-c3ccc(F)cc3F)cc2)CC1 [CHMSA-04-A, cis-4-(((2′,4′-Difluoro-(1,1′-biphenyl)-4-yl)sulfonyl)methyl)-1-methylcyclohexan-1-ol]
- IC50 [1]: 0.98 µM
- hepatocyte CLint at 1 μM (Rat hepatocyte stability): 37.4 µL/min/1e6 cells
- half-life at 1 μM (Rat hepatocyte stability): 0.785 h
- hepatocyte CLint at 1 μM [2]: 40.6 µL/min/1e6 cells
- half-life at 1 μM [2]: 0.458 h
- solubility at 16 h [3]: > 70 µg/mL

SMILES: C[C@]1(O)CC[C@@H](CS(=O)(=O)c2ccc(-c3ccc(Cl)cc3Cl)cc2)CC1 [CHMSA-11-A, cis-4-(((2′,4′-dichloro-[1,1′-biphenyl]-4-yl)sulfonyl)methyl)-1-methylcyclohexan-1-ol]
- IC50 [1]: 0.5 µM
- hepatocyte CLint at 1 μM [2]: 7.8 µL/min/1e6 cells
- half-life at 1 μM [2]: 2.87 h
- IC50 (CYP2C9): > 10 µM
- IC50 (CYP2C19): 25 µM
- IC50 (CYP2D6): > 10 µM
- IC50 (CYP1A2): > 10 µM

SMILES: C[C@]1(O)CC[C@H](CS(=O)(=O)c2ccc(-c3ccc(F)cc3F)cc2)CC1 [CHMSA-04-B, trans-4-(((2′,4′-difluoro-(1,1′-biphenyl)-4-yl)sulfonyl)methyl)-1-methylcyclohexan-1-ol]
- IC50 [1]: 2.4 µM
- hepatocyte CLint at 1 μM (Rat hepatocyte stability): 51.3 µL/min/1e6 cells
- half-life at 1 μM (Rat hepatocyte stability): 0.523 h
- hepatocyte CLint at 1 μM [2]: < 3 µL/min/1e6 cells
- half-life at 1 μM [2]: > 7.67 h
- solubility at 16 h [3]: 40 µg/mL (≈ 105 µM)

SMILES: C[C@]1(O)CC[C@H](CS(=O)(=O)c2ccc(-c3ncc(F)cc3F)c(F)c2)CC1 [CHMSA-03-B, trans-4-(((4-(3,5-Difluoropyridin-2-yl)-3-fluorophenyl)sulfonyl)methyl)-1-methylcyclohexan-1-ol]
- IC50 [1]: 5.4 µM
- hepatocyte CLint at 1 μM [2]: < 3 µL/min/1e6 cells
- half-life at 1 μM [2]: > 7.67 h
- metabolic stability (in words) (human hepatocytes): exceptionally good stability

SMILES: C[C@]1(O)CC[C@@H](CS(=O)(=O)c2ccc(-c3ncc(F)cc3F)cc2C(F)(F)F)CC1 [CHMSA-09-A, cis-4-(((4-(3,5-difluoropyridin-2-yl)-2-(trifluoromethyl)phenyl)sulfonyl)methyl)-1-methylcyclohexan-1-ol]
- IC50 [1]: 0.3 µM
- potency in the Thp1 monocytic ATP assay (in words) [1]: excellent potency
- hepatocyte CLint at 1 μM [2]: 12.1 µL/min/1e6 cells
- half-life at 1 μM [2]: 1.87 h
- IC50 (CYP2C9): > 25 µM
- IC50 (CYP2C19): 25 µM
- IC50 (CYP2D6): > 25 µM
- IC50 (CYP3A4): > 25 µM
- IC50 (CYP1A2): > 25 µM

SMILES: C[C@]1(O)CC[C@H](CS(=O)(=O)c2ccc(-c3ccc(F)cc3F)cc2C(F)(F)F)CC1 [CHMSA-08-B, trans-4-(((2′,4′-Difluoro-3-(trifluoromethyl)-[1,1′-biphenyl]-4-yl)sulfonyl)methyl)-1-methylcyclohexan-1-ol]
- IC50 [1]: 0.4 µM
- hepatocyte CLint at 1 μM [2]: 9.8 µL/min/1e6 cells
- half-life at 1 μM [2]: 2.3 h
- IC50 (CYP2C9): > 25 µM
- IC50 (CYP2C19): > 25 µM
- IC50 (CYP2D6): > 10 µM
- IC50 (CYP1A2): > 10 µM

SMILES: C[C@]1(O)CC[C@@H](CS(=O)(=O)c2ccc(-c3ccc(C#N)cc3Cl)cc2)CC1 [CHMSA-05-A, 2-chloro-4′-(((cis-4-hydroxy-4-methylcyclohexyl)methyl)sulfonyl)-[1,1′-biphenyl]-4-carbonitrile]
- IC50 [1]: 0.8 µM
- hepatocyte CLint at 1 μM [2]: 3.3 µL/min/1e6 cells
- half-life at 1 μM [2]: 6.61 h
- IC50 (CYP2C9): 7 µM
- IC50 (CYP2C19): 36.6 µM
- IC50 (CYP2D6): > 50 µM
- IC50 (CYP3A4): 26.3 µM
- IC50 (CYP1A2): > 50 µM

SMILES: C[C@]1(O)CC[C@H](CS(=O)(=O)c2ccc(-c3ccc(C#N)cc3)c(F)c2)CC1 [CHMSA-12-B, 2′-Fluoro-4′-(((trans-4-hydroxy-4-methylcyclohexyl)methyl)sulfonyl)-[1,1′-biphenyl]-4-carbonitrile]
- IC50 [1]: 3.2 µM
- hepatocyte CLint at 1 μM [2]: < 3.1 µL/min/1e6 cells
- half-life at 1 μM [2]: > 7.36 h
- metabolic stability (in words) (human hepatocytes): exceptionally good stability

SMILES: C[C@]1(O)CC[C@@H](CS(=O)(=O)c2ccc(-c3ccc(C#N)cc3)c(F)c2)CC1 [CHMSA-12-A, 2′-fluoro-4′-(((cis-4-hydroxy-4-methylcyclohexyl)methyl)sulfonyl)-[1,1′-biphenyl]-4-carbonitrile]
- IC50 [1]: 1.8 µM
- hepatocyte CLint at 1 μM [2]: < 3.1 µL/min/1e6 cells
- half-life at 1 μM [2]: > 7.27 h
- metabolic stability (in words) (human hepatocytes): exceptionally good stability

SMILES: C[C@]1(O)CC[C@H](CS(=O)(=O)c2ccc(-c3ccc(C#N)cc3F)cc2C(F)(F)F)CC1 [CHMSA-02-B]
- IC50 [1]: 0.3 µM
- potency in the Thp1 monocytic ATP assay (in words) [1]: excellent potency
- hepatocyte CLint at 1 μM [2]: 10.8 µL/min/1e6 cells
- half-life at 1 μM [2]: 2.03 h
- IC50 (CYP2C9): > 10 µM
- IC50 (CYP2C19): > 10 µM
- IC50 (CYP2D6): > 10 µM
- IC50 (CYP3A4): > 10 µM
- IC50 (CYP1A2): > 10 µM
